How the values were obtained:
[1] = Pharmacokinetic study of indacaterol in rat lung tissues (MISPE, UPLC); type: in vivo, male Wistar rats; details: rat lungs
Experimental: AUC was calculated using the trapezoidal rule where, AUC 0−t was determined by summing the areas of consecutive trapezoids formed by plotting drug concentration versus time[36]. The elimination rate constant was estimated from the least-squares regression slope of the terminal lung concentrations by multiplying the negative slope by 2.303[36]. The AUC 0−inf was calculated using Eq. (9)[36]:9 [drawing 9]
where, Ct is the last lung concentration measured. The t1/2 was calculated using Eq. (10)[36]:10 [drawing 10]
The rats were divided into eight sampling time points (n = 3/sampling time point) representing different time intervals (0.0, 5.0, 15.0, 30.0, 60.0, 180.0, 360.0 and 1440.0 min) for the pharmacokinetic study. Except for the zero-time sampling point; where rats were not administered the drug and were used for bioanalytical validation; each rat in each sampling time point was administered one inhalation capsule containing 150 µg of indacaterol using a powder administration device for animals (Aptar Pharma, Le Prieure, Le Neubourg, France). The powder administration device was designed to deliver a uniform dose of dry powder inhalers into the lungs of rats.
At each time interval, three rats were subjected to euthanasia in the euthanasia chamber using carbon dioxide gas inhalation, after being unconscious, the rats were subjected to decapitation and their lungs were separated and cut into small slices to facilitate homogenization. Then, the lung tissues were homogenized for 10 min using a homogenizer placed in an ice jacket with 2.0 mL of PBS. The homogenized samples were then centrifuged, and the supernatant was separated and loaded into MISPE cartridge following the optimized MISPE steps. The drug was eluted in 1.0 mL of the eluent. Then, 10.0 µL of salbutamol stock solution was added to the eluent as an IS, and the eluent was then injected into UPLC. The same procedure was repeated at each time interval. Dead animal bodies were kept in biohazard bags in -20^ºC freezer and finally incinerated by specialized waste disposal companies.

[2] = Stability of lung samples spiked with indacaterol standard; type: physicochemical, rat; details: for Short-term stability, % deviation from fresh sample: room temperature 2 h, lung sample; for Long-term stability, % deviation from fresh sample: -80 °C 3 weeks; for Auto-sampler stability, % deviation from fresh sample: autosampler 30°C 6 h; for Freeze and thaw stability, % deviation from fresh sample: three cycles each of 24 h
Experimental: Regarding the preparation of lung tissue samples, three non-medicated male rats were sacrificed by decapitation and their whole lungs were harvested. The lungs were cut into small slices and mixed with 2.0 mL of PBS, homogenized in an ice jacket for 10.0 min. Subsequently, 1800.0 µL of the homogenate was collected and spiked with 200.0 µL of indacaterol solution with concentrations of 1.0, 3.0, 350.0, and 700.0 µg mL^− 1 separately, to achieve the concentration of the LLOQ and QCs per 1.0 mL of the lung homogenate. Samples were centrifuged at 3000 rpm for 10 min and 1.0 mL of the supernatant was passed through the MISPE cartridge according to the extraction protocol outlined in section "Preparation and optimization of MISPE". Finally, 10.0 µL of salbutamol stock standard solution was added to the eluent as IS, and the samples were injected into the UPLC for analysis.
Samples stabilities were assessed by injecting LLOQ and QCs six times and compared to freshly prepared samples using the following stability conditions:
Samples were left at room temperature for a time exceeding that required for sample preparation (2 h).
Samples were left in autosampler (30°C) for 6 h; expected time of samples storage in autosampler before injection. Then, samples were injected.
Samples were subjected to three cycles of freeze and thaw each of 24 h and the samples were kept under the same conditions as during the analysis.
Samples were stored at -80^ºC over a period exceeding that required for the whole experiment (3 weeks).
The results of all stability conditions were evaluated using Eq. (2). The deviation should not exceed ± 15.0%.2 [drawing 2]

[3] = Solubility of indacaterol in solvents (porogen and washing solvent choice); type: physicochemical
[4] = cited from earlier work
[5] = design: method as in PMID 24295085; details: human lung and pulmonary microsomes; cited from earlier work
[6] = design: method as in PMID 19819331; details: cited from earlier work
[7] = male, Wistar, lung, inhaled or intranasal, 150 ug, single inhaled capsule 150 µg, mean ± SD

CCc1cc2c(cc1CC)CC(NC[C@H](O)c1ccc(O)c3[nH]c(=O)ccc13)C2 [indacaterol, 5-[(1R)-2-(5,6-diethyl-indan-2-ylamino)-1-hydroxy-ethyl]−8-hydroxy-1H-quinolin-2-one]
Cmax ([1]; male, Wistar, lung, inhaled or intranasal, 150 ug, single inhaled Onbrez Breezhaler capsule 150 µg indacaterol, n = 3 per sampling time point, mean ± SD): 51 ± 2.81 µg/mL | AUC(0-inf) [1, 7]: 542 ± 5.25 µg·h/mL | Tmax [1, 7]: 4.98 ± 0.06 min | half-life ([1]; male, Wistar, lung, inhaled or intranasal, 150 ug, single inhaled capsule 150 µg, mean ± SD, read-out: t1/2 (0–24) (converted)): 48.51 ± 0.012 h | AUC(0-t) ([1]; male, Wistar, lung, inhaled or intranasal, 150 ug, zero to 24 h, single inhaled capsule 150 µg, mean ± SD): 175.9 ± 1.05 µg·h/mL | onset of lung deposition ([1]; single inhaled capsule 150 µg): 5 min | Elimination rate constant ([1]; single inhaled capsule 150 µg, mean ± SD): 0.014 ± 0.00012 h^− 1 | Short-term stability, % deviation from fresh sample ([2]; LLOQ 0.10 µg mL^-1): -11.30±3.50% | Long-term stability, % deviation from fresh sample ([2]; LLOQ): -13.10±5.89% | Auto-sampler stability, % deviation from fresh sample ([2]; LLOQ): -12.05±4.20% | Freeze and thaw stability, % deviation from fresh sample ([2]; LLOQ): -13.26±4.85% | Short-term stability, % deviation from fresh sample ([2]; QCH 70.0 µg mL^-1): -2.89±1.94% | Long-term stability, % deviation from fresh sample ([2]; QCH): -3.28±1.32% | Auto-sampler stability, % deviation from fresh sample ([2]; QCH): -1.71±2.67% | Freeze and thaw stability, % deviation from fresh sample ([2]; QCH): -2.20±2.25% | Short-term stability, % deviation from fresh sample ([2]; QCL 0.30 µg mL^-1): -5.74±2.25% | Long-term stability, % deviation from fresh sample ([2]; QCL): -4.40±3.88% | Auto-sampler stability, % deviation from fresh sample ([2]; QCL): -5.98±2.58% | Freeze and thaw stability, % deviation from fresh sample ([2]; QCL): -4.80±3.26% | Short-term stability, % deviation from fresh sample ([2]; QCM 35.0 µg mL^-1): -4.14±2.61% | Long-term stability, % deviation from fresh sample ([2]; QCM): -3.90±2.22% | Auto-sampler stability, % deviation from fresh sample ([2]; QCM): -4.02±2.34% | Freeze and thaw stability, % deviation from fresh sample ([2]; QCM): -4.30±2.81% | solubility in acetonitrile and chloroform ([3]; tested as porogen): insolubility | solubility in methanol ([3]; washing solvent discussion): high | time to enter the bloodstream after inhalation ([4]; after being inhaled): ≤ 5 min | time to highest blood concentration ([4]; after entering the bloodstream, at very low doses): approximately 15 min | absolute bioavailability ([4]; inhaled): 45% | fraction of systemically available indacaterol due to pulmonary absorption (Flung) ([4]; inhaled): 74% | time to steady state ([4]; once-daily inhalation): 12 days | metabolism by UGT1A1 and CYP3A4 in the lung [5]: did not detect any apparent metabolism | lipophilicity [6]: high | binding affinity for raft micro-domains compared to other β2 agonists ([6]; plasma membrane of airway smooth muscle): two-fold higher
